Our source for the activity coefficient values is the NIST ThermoML archive (doi:10.1021/acs.jced.7b00114).

Structures are written as SMILES. ± gives the expanded uncertainty stated by the source.

The data set can be described thus: activity coefficient (dimensionless); of the first substance listed, at infinite dilution; xn = mol fraction of the nth substance listed. Conditions: Liquid, Chemical equilibration / Heterogeneous equilibration, x1 = 0.

On to `O` [water] + FC(F)(F)c1ccccc1, for which the activity coefficient was determined as 362 ± 33 (298.15 K, 100 kPa); 302 ± 27 (303.15 K, 100 kPa); 256 ± 23 (308.15 K, 100 kPa); 218 ± 20 (313.15 K, 100 kPa); 181 ± 16 (318.15 K, 100 kPa); 155 ± 14 (323.15 K, 100 kPa).
For the molecule `O` [water] + ClC=C(Cl)Cl, the activity coefficient runs as follows: (278.15 K, 99 kPa) 1200 ± 130; (283.15 K, 99 kPa) 978 ± 100; (288.15 K, 99 kPa) 806 ± 84; (293.15 K, 99 kPa) 663 ± 69; (298.15 K, 99 kPa) 524 ± 54; (303.15 K, 99 kPa) 441 ± 45.
For the molecule `O` [water] + COc1ccccc1, the activity coefficient stood at 95.3 ± 8.3 (298.15 K, 100 kPa); 84.4 ± 7.3 (303.15 K, 100 kPa); 75.8 ± 6.6 (308.15 K, 100 kPa); 68.8 ± 6 (313.15 K, 100 kPa); 61.7 ± 5.3 (318.15 K, 100 kPa); 55.9 ± 4.8 (323.15 K, 100 kPa). In addition, the activity coefficient (328.15 K, 100 kPa) was found to be 50 ± 4.3.
Regarding `O` [water] + Cc1ccccc1, the activity coefficient is, setting by setting: (283.15 K, 100 kPa) 620 ± 57; (293.15 K, 100 kPa) 423 ± 39; (303.15 K, 100 kPa) 300 ± 27; (313.15 K, 100 kPa) 214 ± 19; (318.15 K, 100 kPa) 184 ± 16; (323.15 K, 100 kPa) 155 ± 14.
Regarding `O` [water] + CCOc1ccccc1, the activity coefficient was found to be 110 ± 9.6 (298.15 K, 100 kPa); 97 ± 8.5 (303.15 K, 100 kPa); 87.3 ± 7.6 (308.15 K, 100 kPa); 77.7 ± 6.8 (313.15 K, 100 kPa); 69.9 ± 6.1 (318.15 K, 100 kPa); 62.7 ± 5.4 (323.15 K, 100 kPa).
Take `O` [water] + Brc1ccccc1: the activity coefficient (298.15 K, 100 kPa) was determined as 367 ± 33; the activity coefficient (303.15 K, 100 kPa) is 311 ± 28; the activity coefficient (308.15 K, 100 kPa) was determined as 264 ± 24; the activity coefficient (313.15 K, 100 kPa) came out at 226 ± 20; the activity coefficient (318.15 K, 100 kPa) is 189 ± 17; the activity coefficient (323.15 K, 100 kPa) came out at 164 ± 15.
Consider `O` [water] + COc1ccc(Br)cc1, for which the activity coefficient reads like this: (298.15 K, 100 kPa) 119 ± 10; (303.15 K, 100 kPa) 106 ± 9.3; (308.15 K, 100 kPa) 93.7 ± 8.2; (313.15 K, 100 kPa) 83.3 ± 7.3; (318.15 K, 100 kPa) 74.1 ± 6.4; (323.15 K, 100 kPa) 65.5 ± 5.7.
As for `O` [water] + Clc1ccccc1, the activity coefficient (298.15 K, 100 kPa) was determined as 376 ± 34; the activity coefficient (303.15 K, 100 kPa) was determined as 318 ± 29; the activity coefficient (308.15 K, 100 kPa) stood at 271 ± 24; the activity coefficient (313.15 K, 100 kPa) turned out to be 235 ± 21; the activity coefficient (318.15 K, 100 kPa) was found to be 202 ± 18; the activity coefficient (323.15 K, 100 kPa) is 177 ± 16.
